Patent publication US8193224B2, “Medicinal composition for prevention or treatment of parasitic protozoan infection” (Fujifilm Corporation, priority 2004, dated 2012)
Where two headings read alike, the source gives them in different places. Blank lines part the entries; values can stand above or below the molecule they belong to.

Columns and labels:
Format in all cases: cell-based
[1] = tested on: Plasmodium falciparum FCR-3 strain; assay: Drug sensitive-Plasmodium falciparum growth inhibition screening test; conditions: for EC50: Plasmodium falciparum, FCR3, Erythrocyte, read-out: 50% growth inhibition concentration P. falciparum FCR; for Selective toxicity: chemotherapy index = EC50 mouse FM3A cells / EC50 drug sensitive P. falciparum
Protocol: In the present example, protozoa of Plasmodium falciparum FCR-3 strain was used. RPMI-1640 medium sterilized with a filter was used in the experiment. pH was adjusted to 7.4, and human serum was added to be 10%. Malarial parasites were cultured under 5% O2 concentration, 5% CO2 concentration, 90% N2 concentration, and at a temperature of 36.5° C.
Cultured malarial parasite infected-erythrocytes were collected by centrifugation, and washed in a medium containing serum. Non-infected erythrocytes were added so that the primary infection rate is 0.3%. Hematocrit level at that time was 3%. The compounds of the present invention to be used in the test and the positive target drugs (chloroquine, quinine) were dissolved in dimethylsulfoxide (DMSO) to make a test solution of a predetermined concentration. The test solution was added in an amount of 5 to 10 μl in a 24-well culture plate. To the control, DMSO was added in an amount of 10 μL/well. Test solutions were taken by duplicates. Subsequently, Plasmodium falciparum culture solution previously prepared to a predetermined concentration was added, pipetted quietly, and suspended in the medium similarly. Culture plate was cultured for 72 hours in a CO2—O2—N2(5%, 5%, 90%) incubator. Thin layer smear preparations were prepared for each well, and after performing Diff-Quick staining, the preparations were measured with a microscope (oil immersion, 1,000×), and malarial parasite infection rates of the test solution added-group and of the control group were calculated. Growth inhibition rate was calculated with the following formula from the malarial parasite infection rate obtained in the above, to obtain a 50% growth inhibition concentration (EC50). Growth inhibition rate (%)={1−(b−a)/(c−a)}×100 a: early infection rate b: infection rate when test solution was added c: infection rate of the control

[2] = Growth inhibition test of mouse FM3A cells
Protocol: F28-7 strain which is a wild-type of the mouse breast cancer derived FM3A cell was used. As for a medium, immobilized fetal bovine serum was added to a ES medium at 2%, which medium was cultured under CO2 concentration 5%, at 37° C. Doubling time of FM3A cells under that condition was approximately 12 hours. Pre-culture was conducted and cells which have entered the logarithmic growth phase were diluted in a medium to be 5×10^4 cells/mL Those prepared when measuring malarial activity were used as a sample. Sample solution was added in an amount of to 10 μL in a 24-well culture plate (the final concentration was 1×10^−4 to 1×10^−5, by adding media etc). Compounds were taken by duplicates, and wells added with 10 μL DMSO were prepared at the same time as a control. Next, cultured cell suspension previously prepared was added in an amount of 990 to 995 μL, pipetted quietly and suspended in a medium similarly. After culturing 48 hours, the cells were counted with a cell controller (CC-108, Toa. Medical Electrics) for each well. Growth rate was calculated with the following formula, to obtain a 50% growth inhibition rate (EC50). Growth rate (%)={(C−A)/(B−A)}×100 A: primary cell count B: cell count of the control, 2 days after C: cell count of wells added with a sample, 2 days after
Cell growth inhibiting activity was calculated from cell count of wells added with a sample, and cell count of the control.

[3] = tested on: Plasmodium falciparum K1 strain; assay: Chloroquine resistant-Plasmodium falciparum growth inhibition screening test
Protocol: In the present example, protozoa of Plasmodium falciparum K1 strain was used. RPMI-1640 medium sterilized with a filter to which human serum was added to be 5%, was used in the experiment. Malarial parasites were cultured under 3% O2 concentration, 4% Co2 concentration, 93% N2 concentration, and at a temperature of 37° C.
The compounds of the present invention to be used in the present test and the positive target drug (chloroquine) were dissolved in DMSO to make a test solution of a predetermined concentration. Cultured malarial parasite infected-erythrocytes were collected by centrifugation, and diluted with non-infected erythrocyte so that the early infection rate is 0.15%. Hematocrit level at that time was 2.5%. 200 μL of malaria infected solution was added to wells of a 96-well culture plate, and adjusted by adding a test solution containing drug of a predetermined concentration or a drug-free DMSO. Test solutions were taken by duplicates. After culturing for 48 hours at 37° C., 0.5 μCi radioactive tritium (3H)-labeled hypoxanthine was added to each well. After further culturing for 24 hours under the same conditions, it was collected on a glass fiber filter and washed with distilled water. Radiation intensity was measured with a beta plate liquid scintillation counter (Wallac), and malarial parasite infection rates of the test solution added group and of the control group were calculated. Growth inhibition rate was calculated with the following formula based on the malarial parasite infection rate obtained in the above, to obtain a 50% growth inhibition concentration (EC50). Growth inhibition rate (%)={1−(b−a)/(c−a)}×100 a: early infection rate b: infection rate when test solution was added c: infection rate of the control

[4] = tested on: Trypanosoma brucei rhodensiense (STIB 900 strain); assay: African trypanosome protozoa growth inhibition screening test; conditions: chemotherapy index = EC50 rat L6 cells / EC50 African trypanosome protozoa
[5] = Growth inhibition test of rat L6 cells; conditions: L6 cells (rat skeletal myoblast)
Protocol: Rat derived-L6 cells (rat skeletal myoblast cell) were used. As medium, RPMI1640 medium was supplemented so that L-glutamin (200 mM) is 1%, and fetal bovine serum 10%, and the medium was cultured under CO2 concentration 5%, at 37° C. The compounds of the present invention and the target drugs to be used in the test were dissolved in DMSO, to make a test solution of a predetermined concentration. Pre-culture was conducted and medium containing cells which have entered the logarithmic growth phase was taken to wells of a 96-well culture plate. Then, a test solution containing drug of a predetermined concentration or a drug-free DMSO was added. Test solutions were taken by duplicates. Culture plate was cultured for 72 hours in an incubator, to test the growth inhibition activity. Test was conducted as follows.
10 μl of Alamar Blue aqueous solution was added to each well, and the resultant was further cultured for 2 hours. Next, the culture plate was placed on a fluorescent micro-plate reader (Spectramax Gemeni XS; US Molecular Device), radiated at an excited wavelength of 536 nm. Fluorescent intensity was measured at 588 nm, and residual rate of L6 cells of the test solution added group, and that of the control was calculated. Based on the cell residual rate obtained in the above, growth inhibition rate to L6 cells was calculated, to obtain a 50% growth inhibition concentration (EC50). Growth inhibition rate (%)={(C−A)/(B−A)}×100 A: primary cell count B: cell count of control, 3 days after C: cell count of wells added with a sample, 3 days after […]

[6] = tested on: Leishmania donovani (MHOM/ET/67/L82 strain); assay: Leishmania protozoa growth inhibition screening test; conditions: Leishmania donovani; MHOM/ET/67/L82 strain amastigote, pH 5.4, 72 hours, Alamar Blue; read-out: 50% growth inhibition concentration Leishmania donovani
Protocol: In the present example, Leishmania donovani (MHOM/ET/67/L82 strain) was used. Protozoa was subcultured in Syrian Golden hamster, from which an amastigote was obtained. In the experiment, SM medium supplemented with 10% heat-treated bovine fetal serum was used, which was adjusted to pH 5.4, and cultured in an atmosphere of 5% CO2 concentration, at 37° C.
The compounds of the present invention to be used in the present test and the positive target drug (miltefosine) were dissolved in DMSO to make a test solution of a predetermined concentration. After adding a medium containing a predetermined number of protozoa to wells of a 96-well culture plate and pre-treating, concentration of the amastigote was measured with CASY cell analysis system (Scharfe, Germany). Then, test solution containing a drug of a predetermined concentration or a drug-free DMSO was added. Test solutions were taken by duplicates. After culturing the culture plate for 72 hours in an incubator, growth inhibition activity was tested. Test was conducted as follows.
10 μL of Alamar Blue aqueous solution was added to each well, and the resultant was further cultured for 2 hours. Next, the culture plate was placed on a fluorescent micro-plate reader (Spectramax Gemeni XS; US Molecular Device), radiated at an excited wavelength of 536 nm. Fluorescent intensity was measured at 588 nm, and infection rate of leishmania protozoa of the test solution added-group and control was calculated, to obtain a 50% growth inhibition concentration (EC50). Growth inhibition rate (%)={1−(b−a)/(c−a)}×100 a: early infection rate b: infection rate when test solution was added c: infection rate of the control

[7] = tested on: Trypanosoma brucei rhodensiense (STIB 900 strain); assay: African trypanosome protozoa growth inhibition screening test; conditions: Trypanosoma brucei, STIB900; STIB 900 strain, blood stream form, 72 hours, Alamar Blue; read-out: 50% growth inhibiting concentration Trypanosoma brucei rhod.
Protocol: In the present example, protozoa of Trypanosoma brucei rhodensiense (STIB 900 strain), a trypamastigote living in blood stream, was used. The medium used in the experiment was a MEM medium which was sterilized with a filter and supplemented with 25 mM N-2-hydroxyethylpiperazine-2-ethansulfonic acid […]), 1 g/L glucose, 1% MEM non-essential amino acid, 0.2 mM 2-mercaptoethanol, 2 mM sodium pyruvate, 0.1 mM hypoxanthine, and 15% heat-treated horse serum. The protozoa was cultured in an atmosphere of CO2 concentration 5%, at a temperature of 37° C.
The compounds of the present invention to be used in the present test and the positive target drug (melarsoprol) were dissolved in DMSO to make a test solution of a predetermined concentration. A medium containing 8×10^3 protozoa, and a test solution containing a drug of a predetermined concentration or a drug-free DMSO were added to wells of a 96-well culture plate, and subsequently, medium was added so that the amount in each well becomes 100 μL. Test solutions were taken by duplicates. After culturing the culture plate for 72 hours in an incubator, growth inhibition activity was tested. Test was conducted as follows. 10 μL of Alamar Blue aqueous solution was added to each well, and the resultant was further cultured for 2 hours. Next, the culture plate was placed on a fluorescent micro-plate reader (Spectramax Gemeni XS; US Molecular Device), radiated at an excited wavelength of 536 nm. Fluorescent intensity was measured at 588 nm, to calculate the trypanosome protozoa infected rate of the test solution added-group, and of the control group. From the protozoan infection rate obtained in the above, growth inhibition rate was calculated with the following formula, to obtain a 50% growth inhibition concentration (EC50). Growth inhibition rate (%)={1−(b−a)/(c−a)}×100 a: early infection rate b: infection rate when test solution was added c: infection rate of the control

[8] = tested on: Leishmania donovani (MHOM/ET/67/L82 strain); assay: Leishmania protozoa growth inhibition screening test; conditions: chemotherapy index = EC50 rat L6 cells / EC50 leishmania protozoa
[9] = tested on: Trypanosoma cruzi (Tulahuen C2C4 strain); assay: American trypanosome protozoa growth inhibition screening test
Protocol: In the present example, amastigote and trypomastigote infected with rat L6 cells of protozoa of Trypanosoma cruzi (Tulahuen C2C4 strain) were used. As medium used in the test, RPMI 1640 medium containing L6 cells was supplemented so that L-glutamine (200 mM) becomes 1%, fetal bovine serum becomes 10%, which was cultured under CO2 concentration 5%, at 37° C.
The compounds of the present invention to be used in the test and the positive target agent (benznidazole) were dissolved in DMSO to make a test solution of a predetermined concentration. A medium containing 5×10^3 protozoa was added to wells of a 96-well culture plate, and pre-cultured for 48 hours. After replacing the medium, test solution containing drug of a predetermined concentration or a drug-free DMSO was added. Test solutions were taken by duplicates. After culturing the culture plate in an incubator for 96 hours, growth inhibition activity was tested. Test was conducted as follows.
50 μL of CPRG/Nonidet was added to each well, and allowed to rest for 2 to 6 hours. Next, the culture plate was placed on a fluorescent micro-plate reader, and the absorbance was measured at 540 nm. Growth inhibition rate was calculated with the following formula based on the protozoan infection rate which was obtained by calculating trypanosome infection rate of the test solution added group and control group, to obtain a 50% growth inhibition concentration (EC50). Growth inhibition rate (%)={1−(b−a)/(c−a)}×100 a: early infection rate b: infection rate when test solution was added c: infection rate of the control

[10] = drug sensitive FCR-3 strain, infected erythrocytes, cultured 72 hours, microscopy

SMILES: CCN(CC)CCCC(C)Nc1ccnc2cc(Cl)ccc12 (centres unmarked) [chloroquine, reference compound]
EC50 ([1]; 72 h): 18 nM
Selective toxicity [1]: 1780
EC50 at 48 h ([2]; mouse FM3A cells, 48 hours, cell count (Table 1), read-out: 50% growth inhibition concentration Cytotoxicity FM3A): 32000 nM

SMILES: C=C[C@H]1C[N@@]2CC[C@H]1C[C@H]2[C@H](O)c1ccnc2ccc(OC)cc12 [quinine, reference compound]
EC50 [1, 10]: 110 nM
Selective toxicity [1]: 910
EC50 at 48 h ([2]; mouse): 100000 nM

SMILES: CCC[n+]1c(/C=c2\s/c(=C\C=C3/SCCN3CC)c(=O)n2CC)sc2c3ccccc3ccc21 [A-16]
EC50 ([9]; Trypanosoma cruzi, Tulahuen C2C4 strain in rat L6 cells, 96 hours, CPRG/Nonidet, read-out: 50% growth inhibition concentration Trypanosoma cruzi): 90 nM
Selective toxicity ([9]; chemotherapy index = EC50 rat L6 cells / EC50 American trypanosome protozoa): 10
Selective toxicity [4]: 31
EC50 at 72 h ([5]; Alamar Blue (Table 3), read-out: 50% growth inhibiting concentration Cytotoxicity L6): 940 nM
EC50 [6]: 8 nM
EC50 [7]: 30 nM
Selective toxicity [8]: 120

Further lines, with some results ahead:

EC50 ([3]; Plasmodium falciparum, 72 h, chloroquine resistant K1 strain, 3H-hypoxanthine, 48 + 24 hours, read-out: 50% growth inhibition concentration P. falciparum K1): 38 nM
EC50 [6]: 11 nM
EC50 [7]: 93 nM
SMILES: CCN1CCS/C1=C\C=c1/s/c(=C\c2sc3c4ccccc4ccc3[n+]2CCO)n(CC)c1=O [A-17]
Selective toxicity ([3]; chemotherapy index = EC50 rat L6 cells / EC50 chloroquine resistant P. falciparum): 1400
Selective toxicity [4]: 570
EC50 at 72 h ([5]; Alamar Blue (Table 2), read-out: 50% growth inhibition concentration Cytotoxicity L6): 53000 nM
Selective toxicity [8]: 4800

EC50 [1, 10]: 100 nM
SMILES: CCn1c(=O)/c(=C/C=C2\Sc3ccc4ccccc4c3N2C)s/c1=C\c1sc2ccc3ccccc3c2[n+]1CC [A-2]
Selective toxicity [1]: 8
EC50 at 48 h ([2]; mouse): 800 nM

EC50 [1, 10]: 600 nM
SMILES: CCN1C=CC=C/C1=C\C=c1/s/c(=C\c2cc[n+](CC)c3ccccc23)n(CC)c1=O [A-11]
Selective toxicity [1]: >23
EC50 at 48 h ([2]; mouse): > 14000 nM

EC50 [1, 10]: 75 nM
SMILES: CCn1c(=O)/c(=C/C=C2\Sc3ccc4ccccc4c3N2C)s/c1=C\c1scc(C)[n+]1CC [A-3]
Selective toxicity [1]: 20
EC50 at 48 h ([2]; mouse): 1500 nM
